The nature of data set [1]: Physical stability on storage: particle size (Dv90) by laser diffraction. It counts as physicochemical.
Data set [2] is described as follows: Particle size distribution by laser diffraction (Malvern Mastersizer 2000), oxycodone base. In kind it is physicochemical. The following applies: Table 1 analysis; lot 2 in duplicate.
The mark [3] stands for this setting: 1 month, stored, including at 25° C./60% RH and/or 40° C./75% RH (not specified).
The mark [4] stands for this setting: 3 months, stored, including at 25° C./60% RH and/or 40° C./75% RH (not specified).
Where [5] appears, read: 6 months, stored, including at 25° C./60% RH and/or 40° C./75% RH (not specified).
The mark [6] stands for this setting: 9 months, stored, including at 25° C./60% RH and/or 40° C./75% RH (not specified).
Setting [7] is: 12 months, stored, including at 25° C./60% RH and/or 40° C./75% RH (not specified).

Where “and” joins values, the source holds several entries; their conditions need not be identical. Identical values can stand only once.

Turning to `COc1ccc2c3c1O[C@H]1C(=O)CC[C@@]4(O)[C@@H](C2)N(C)CC[C@]314` [first high purity lot, oxycodone], the “Particle size (Dv90)” value in data set [1] (setting [3]) is 5 μ; in data set [1] (setting [4]), 5 μ; in data set [1] (setting [5]), 5 μ; in data set [1] (setting [6]), 6 μ; in data set [1] (setting [7]), 6 μ; in data set [1] (25° C./60% RH, 1 month, listed as first high purity micronized lot), 4 μ. For the same molecule, the “Particle size (Dv90)” value is reported as 5 μ in data set [1] (25° C./60% RH, 3 months, listed as first high purity micronized lot); 5 μ in data set [1] (25° C./60% RH, 6 months, listed as first high purity micronized lot); 7 μ in data set [1] (25° C./60% RH, 9 months, listed as first high purity micronized lot); 6 μ in data set [1] (25° C./60% RH, 12 months, listed as first high purity micronized lot); 5 μ in data set [1] (40° C./75% RH, 1 month, listed as first high purity micronized lot); 5 μ in data set [1] (40° C./75% RH, 3 months, listed as first high purity micronized lot). For the same molecule, the “Particle size (Dv90)” value was determined as 5 μ in data set [1] (40° C./75% RH, 6 months, listed as first high purity micronized lot); 4 μ in data set [1] (Time 0); 4 μ in data set [1] (Time 0, listed as first high purity micronized lot).
`COc1ccc2c3c1O[C@H]1C(=O)CC[C@@]4(O)[C@@H](C2)N(C)CC[C@]314` [second lot, oxycodone]: the “Particle size (Dv90)” value in data set [1] (25° C./60% RH, 6 months) came out at 5 μ; in data set [1] (25° C./60% RH, 9 months) it was 6 μ; in data set [1] (25° C./60% RH, 12 months), 6 μ; in data set [1] (Time 0), 4 μ.
With `COc1ccc2c3c1O[C@H]1C(=O)CC[C@@]4(O)[C@@H](C2)N(C)CC[C@]314` [third lot, oxycodone], the “Particle size (Dv90)” value in data set [1] (25° C./60% RH, 6 months) was 6 μ; in data set [1] (25° C./60% RH, 9 months) it was 6 μ; in data set [1] (25° C./60% RH, 12 months), 7 μ; in data set [1] (Time 0), 4 μ.
As for `COc1ccc2c3c1O[C@H]1C(=O)CC[C@@]4(O)[C@@H](C2)N(C)CC[C@]314` [third high purity lot, oxycodone], the “Particle size (Dv90)” value was found to be 4 μ in data set [1] (setting [3]); 4 μ in data set [1] (setting [4]); 5 μ in data set [1] (setting [5]); 5 μ in data set [1] (setting [6]); 5 μ in data set [1] (setting [7]); 4 μ in data set [1] (25° C./60% RH, 1 month, listed as third high purity micronized lot). For the same molecule, the “Particle size (Dv90)” value in data set [1] (25° C./60% RH, 3 months, listed as third high purity micronized lot) is 4 μ; in data set [1] (25° C./60% RH, 6 months, listed as third high purity micronized lot), 5 μ; in data set [1] (25° C./60% RH, 9 months, listed as third high purity micronized lot) it was 5 μ; in data set [1] (25° C./60% RH, 12 months, listed as third high purity micronized lot), 5 μ; in data set [1] (40° C./75% RH, 1 month, listed as third high purity micronized lot) it was 4 μ; in data set [1] (40° C./75% RH, 3 months, listed as third high purity micronized lot) it was 5 μ. The “Particle size (Dv90)” value came to 5 μ in data set [1] (40° C./75% RH, 6 months, listed as third high purity micronized lot); 5 μ in data set [1] (Time 0); 5 μ in data set [1] (Time 0, listed as third high purity micronized lot).
For `COc1ccc2c3c1O[C@H]1C(=O)CC[C@@]4(O)[C@@H](C2)N(C)CC[C@]314` [first lot, oxycodone], the “Particle size (Dv90)” value in data set [1] (25° C./60% RH, 6 months) is on record as 7 μ; in data set [1] (25° C./60% RH, 9 months), 6 μ; in data set [1] (25° C./60% RH, 12 months), 7 μ; in data set [1] (Time 0) it was 6 μ.
As for `COc1ccc2c3c1O[C@H]1C(=O)CC[C@@]4(O)[C@@H](C2)N(C)CC[C@]314` [second high purity lot, oxycodone], the “Particle size (Dv90)” value was 4 μ in data set [1] (setting [3]); 4 μ in data set [1] (setting [4]); 5 μ in data set [1] (setting [5]); 5 μ in data set [1] (setting [6]); 5 μ in data set [1] (setting [7]); 4 μ in data set [1] (25° C./60% RH, 1 month, listed as second high purity micronized lot). The “Particle size (Dv90)” value was 4 μ in data set [1] (25° C./60% RH, 3 months, listed as second high purity micronized lot); 6 μ in data set [1] (25° C./60% RH, 6 months, listed as second high purity micronized lot); 5 μ in data set [1] (25° C./60% RH, 9 months, listed as second high purity micronized lot); 6 μ in data set [1] (25° C./60% RH, 12 months, listed as second high purity micronized lot); 5 μ in data set [1] (40° C./75% RH, 1 month, listed as second high purity micronized lot); 5 μ in data set [1] (40° C./75% RH, 3 months, listed as second high purity micronized lot). Besides, the “Particle size (Dv90)” value amounted to 6 μ in data set [1] (40° C./75% RH, 6 months, listed as second high purity micronized lot); 4 μ in data set [1] (Time 0); 4 μ in data set [1] (Time 0, listed as second high purity micronized lot).
With `COc1ccc2c3c1O[C@H]1C(=O)CC[C@@]4(O)[C@@H](C2)N(C)CC[C@]314` [Lot 2 (waste), oxycodone], in data set [2], the “Particle size (Dv10)” value was 0.5, 0.5 μ; the “Particle size (Dv50)” value is 1.6 μ and 2.3 μ; the “Particle size (Dv90)” value is 3.3 μ and 4.9 μ.
In the case of `COc1ccc2c3c1O[C@H]1C(=O)CC[C@@]4(O)[C@@H](C2)N(C)CC[C@]314` [micronized oxycodone preparation, oxycodone], in data set [1] (Time 0), the “Particle size (Dv90)” value is on record as 5-6 μ. For the same molecule, the “Particle size (Dv90 at three months)” value in data set [1] (stored at 25° C./60% RH and 40°/75% RH, 3 months) is recorded as 6-11 μ.

These data come from US9339463B2, “Micronized opioid compositions having a specific particle size distribution” (priority 2007, dated 2016).
